Laboratory results as given in ChEMBL document CHEMBL1641527, “Design and synthesis of aryl ether and sulfone hydroxamic acids as potent histone deacetylase (HDAC) inhibitors” (Bioorg Med Chem Lett, 2011).

Test: Inhibition of HDAC by [3H]acetate-radiolabelled peptide substrate assay with scintillation counting

Compound | IC50 [nM]
CC(/C=C/C(=O)O)=C\C(C)Oc1cccc(Cc2ccccc2)c1 (stereo not drawn) | > 50000
CC(/C=C/C(=O)O)=C\C(C)Oc1cccc(C(F)(F)F)c1 (stereo not drawn) | > 50000
CC(/C=C/C(=O)O)=C\COc1cccc2c1CCCC2 | > 1000
CC(/C=C/C(=O)O)=C\C(C)Oc1cccc2c1CCCC2 (stereo not drawn) | > 50000
CC(/C=C/C(=O)O)=C\COc1ccc(C(C)C)cc1 | > 1000
CC(/C=C/C(=O)O)=C\C(C)Oc1ccc(C(C)C)cc1 (stereo not drawn) | > 50000
CC(=O)c1ccc(OC(C)/C=C(C)/C=C/C(=O)NO)cc1 (stereo not drawn) | > 50000
CC(/C=C/C(=O)O)=C\C(C)S(=O)(=O)c1ccc(Br)cc1 (stereo not drawn) | > 1000
CC(/C=C/C(=O)O)=C\C(C)S(=O)(=O)c1ccc(Cl)cc1 (stereo not drawn) | > 1000
CC(/C=C/C(=O)O)=C\C(C)S(=O)(=O)c1ccc(F)cc1 (stereo not drawn) | > 1000
CC(/C=C/C(=O)O)=C\C(C)S(=O)(=O)c1ccc(C)c(C)c1 (stereo not drawn) | > 1000
CC(/C=C/C(=O)O)=C\C(C)S(=O)(=O)c1ccc(C)cc1C (stereo not drawn) | > 1000
CC(/C=C/C(=O)NO)=C\C(C)S(=O)(=O)c1ccc(Br)cc1 (stereo not drawn) | > 1000
CC(/C=C/C(=O)NO)=C\C(C)S(=O)(=O)c1ccc(C)cc1 (stereo not drawn) | > 1000
COc1ccc(S(=O)(=O)C(C)/C=C(C)/C=C/C(=O)NO)cc1 (stereo not drawn) | > 1000
CC(=O)Nc1ccc(S(=O)(=O)C(C)/C=C(C)/C=C/C(=O)NO)cc1 (stereo not drawn) | > 1000
COc1cccc(S(=O)(=O)C(C)/C=C(C)/C=C/C(=O)NO)c1 (stereo not drawn) | > 1000
CC(/C=C/C(=O)NO)=C\C(C)S(=O)(=O)c1ccc(Cl)c(Cl)c1 (stereo not drawn) | > 1000
CC(/C=C/C(=O)NO)=C\C(C)S(=O)(=O)c1cnc2cc(C)ccc2c1 (stereo not drawn) | > 1000
CC(/C=C/C(=O)NO)=C\C(C)S(=O)(=O)c1cn(C)cn1 (stereo not drawn) | > 1000
CC(/C=C/C(=O)NO)=C\C(C)S(=O)(=O)c1nc(C)cc(C)n1 (stereo not drawn) | > 1000

More lines, now with the values ahead:

IC50 [nM] | Compound
> 1000 | CC(/C=C/C(=O)O)=C\C(C)Oc1cccc(Cl)c1 (stereo not drawn)
> 1000 | CC(/C=C/C(=O)O)=C\C(C)Oc1ccc(Br)cc1Br (stereo not drawn)
> 1000 | CC(/C=C/C(=O)O)=C\COc1cccc(-c2ccccc2)c1
> 1000 | CC(/C=C/C(=O)O)=C\C(C)Oc1cccc(-c2ccccc2)c1 (stereo not drawn)
> 1000 | COc1ccc(OC/C=C(C)/C=C/C(=O)O)cc1
> 1000 | CCCCCCOc1ccc(OC(C)/C=C(C)/C=C/C(=O)O)cc1 (stereo not drawn)
188 | CC(/C=C/C(=O)NO)=C\COc1cccc(Cl)c1
890 | CC(/C=C/C(=O)NO)=C\COc1ccc(Br)cc1Br
41 | CC(/C=C/C(=O)NO)=C\COc1cccc(-c2ccccc2)c1
55 | CC(/C=C/C(=O)NO)=C\C(C)Oc1cccc(-c2ccccc2)c1 (stereo not drawn)
1200 | CC(/C=C/C(=O)NO)=C\COc1cccc(Cc2ccccc2)c1
68 | COc1ccc(OC/C=C(C)/C=C/C(=O)NO)cc1
18 | CC(/C=C/C(=O)NO)=C\COc1cccc(C(F)(F)F)c1
20 | COc1ccc2ccc(OC/C=C(C)/C=C/C(=O)NO)cc2c1
1100 | CCCCCCOc1ccc(OC(C)/C=C(C)/C=C/C(=O)NO)cc1 (stereo not drawn)
162 | CC(/C=C/C(=O)NO)=C\C(C)Oc1ccc(-c2ccc(Br)cc2)cc1 (stereo not drawn)
3 | CC(/C=C/C(=O)NO)=C\[C@@H](C)C(=O)c1ccc(N(C)C)cc1 [TRICHOSTATIN]
